Test results: ChEMBL document CHEMBL5316268 (J Med Chem, 2023)
The source made the active and inactive calls. The rule behind the calls is not given here.

Columns and labels:
5'-nucleotidase [1] = molecular target: T1, 5'-nucleotidase (Homo sapiens, UniProt P21589); experiment: Inhibition of CD73 in human plasma incubated for 15 mins in presence of 15N5-AMP by LC/MS analysis; type: cell-free
[2] = Clearance in CD rat at 1 mg/kg, iv measured for 24 hrs by LC-MS/MS analysis; type: ADME, organism-based; conditions: in vivo
5'-nucleotidase [3] = molecular target: T1, 5'-nucleotidase; experiment: Inhibition of soluble C-terminal 6His-tagged recombinant human CD73 (27 to 547 residues) expressed in CHO cells incubated for 1 hr by malachite green based spectrophotometer assay; type: cell-based
5'-nucleotidase [4] = molecular target: T1, 5'-nucleotidase; experiment: Inhibition of recombinant human CD73
[5] = Oral bioavailability in CD rat at 50 mg/kg measured for 24 hrs by LC-MS/MS analysis; type: ADME, organism-based; conditions: CD, in vivo
5'-nucleotidase [6] = molecular target: T1, 5'-nucleotidase; experiment: Inhibition of cell surface anchored CD73 (unknown origin) expressed in human SK-MEL-28 cells incubated for 30 mins by malachite green assay; type: cell-based
[7] = Selectivity ratio of IC50 for CD73 in human plasma to IC50 for C-terminal 6His-tagged recombinant human CD73 (27 to 547 residues) expressed in CHO cells; type: cell-based
EG7 = experiment: Antitumor activity against mouse EG7 cells implanted in mouse; type: functional, cell-based
5'-nucleotidase [8] = molecular target: T2, 5'-nucleotidase (Mus musculus, UniProt Q61503); experiment: Inhibition of C-terminal 6His-tagged recombinant mouse CD73 (29 to 549 residues) expressed in CHO cells incubated for 1 hr by malachite green assay; type: cell-based
T2 sequence (Q61503 whole entry): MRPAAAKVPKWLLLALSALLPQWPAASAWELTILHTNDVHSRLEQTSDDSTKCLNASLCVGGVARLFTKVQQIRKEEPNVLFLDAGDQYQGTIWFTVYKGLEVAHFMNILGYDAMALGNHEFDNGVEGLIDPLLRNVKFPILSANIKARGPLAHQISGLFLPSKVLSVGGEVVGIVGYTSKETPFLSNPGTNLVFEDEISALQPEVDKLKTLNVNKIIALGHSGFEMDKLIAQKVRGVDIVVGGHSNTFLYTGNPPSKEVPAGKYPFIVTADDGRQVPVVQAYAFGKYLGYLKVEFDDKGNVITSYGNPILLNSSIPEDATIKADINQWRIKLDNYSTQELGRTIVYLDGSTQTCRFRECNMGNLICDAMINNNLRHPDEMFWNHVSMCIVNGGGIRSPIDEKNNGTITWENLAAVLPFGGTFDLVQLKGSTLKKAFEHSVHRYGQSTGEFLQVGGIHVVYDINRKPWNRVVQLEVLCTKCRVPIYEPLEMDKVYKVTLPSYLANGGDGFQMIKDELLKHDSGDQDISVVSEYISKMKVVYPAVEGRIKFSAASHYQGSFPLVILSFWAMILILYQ

T1 sequence (P21589 whole entry): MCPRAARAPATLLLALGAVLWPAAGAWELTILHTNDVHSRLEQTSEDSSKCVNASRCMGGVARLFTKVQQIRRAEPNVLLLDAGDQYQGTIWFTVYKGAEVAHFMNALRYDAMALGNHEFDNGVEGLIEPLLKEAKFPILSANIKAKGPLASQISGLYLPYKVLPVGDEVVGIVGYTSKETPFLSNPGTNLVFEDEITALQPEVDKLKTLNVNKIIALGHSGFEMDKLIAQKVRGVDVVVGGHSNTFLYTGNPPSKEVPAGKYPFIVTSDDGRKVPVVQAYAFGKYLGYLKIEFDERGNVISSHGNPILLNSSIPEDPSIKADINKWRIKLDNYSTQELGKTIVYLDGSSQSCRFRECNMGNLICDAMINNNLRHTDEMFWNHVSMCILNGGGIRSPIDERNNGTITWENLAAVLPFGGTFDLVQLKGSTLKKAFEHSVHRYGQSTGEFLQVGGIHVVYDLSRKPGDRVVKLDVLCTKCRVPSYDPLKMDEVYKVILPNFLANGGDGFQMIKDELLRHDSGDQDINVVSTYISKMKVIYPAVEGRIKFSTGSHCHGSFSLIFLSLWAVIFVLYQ

SMILES	IC50 (5'-nucleotidase [1]) [µM]	clearance [2] [L/h/kg]	other results
C#C[C@@]1(O)[C@@H](COC(Cc2ccccc2)(C(=O)O)C(=O)O)O[C@@H](n2cnc3c(N[C@H](C)c4ccccc4)nc(Cl)nc32)[C@@H]1O	0.917	0.06	
C#C[C@@]1(O)[C@@H](COC(Cc2ccccc2)(C(=O)O)C(=O)O)O[C@@H](n2cnc3c(N4CC(O)C4)nc(Cl)nc32)[C@@H]1O	0.0054	1.02	
Nc1ncnc2c1ncn2[C@@H]1O[C@H](COP(=O)(O)CP(=O)(O)O)[C@@H](O)[C@H]1O [PHOSPHOMETHYLPHOSPHONIC ACID ADENOSYL ESTER]			IC50 (5'-nucleotidase [4]): 6.09 µM
Nc1nc(Cl)nc2c1ncn2[C@@H]1O[C@H](COC(Cc2ccccc2)(C(=O)O)C(=O)O)[C@@H](O)[C@H]1O		1.22	bioavailability [5]: 1.8%; IC50 (5'-nucleotidase [6]): 0.434 µM; IC50 (5'-nucleotidase [4]): 0.1 µM
C#C[C@@]1(O)[C@@H](COC(Cc2ccccc2)(C(=O)O)C(=O)O)O[C@@H](n2cnc3c(NCc4ccccc4)nc(Cl)nc32)[C@@H]1O	> 0.1	0.378	
C[C@@]1(O)[C@@H](COC(Cc2ccccc2)(C(=O)O)C(=O)O)O[C@@H](n2cnc3c(N)nc(Cl)nc32)[C@@H]1O			IC50 (5'-nucleotidase [6]): 0.169 µM
CC[C@@]1(O)[C@@H](COC(Cc2ccccc2)(C(=O)O)C(=O)O)O[C@@H](n2cnc3c(N)nc(Cl)nc32)[C@@H]1O			IC50 (5'-nucleotidase [3]): 0.2 µM
C#C[C@@]1(O)[C@@H](COC(Cc2ccccc2)(C(=O)O)C(=O)O)O[C@@H](n2cnc3c(N(C)C)cc(Cl)nc32)[C@@H]1O	0.041	0.354	IC50 (5'-nucleotidase [3]): 0.0021 µM
C#C[C@@]1(O)[C@@H](COC(Cc2ccccc2)(C(=O)O)C(=O)O)O[C@@H](n2cnc3c(-c4cccs4)nc(Cl)nc32)[C@@H]1O	0.136		
C#C[C@@]1(O)[C@@H](COC(Cc2ccccc2)(C(=O)O)C(=O)O)O[C@@H](n2cnc3c(N)nc(Cl)nc32)[C@@H]1O		0.78	Activity (EG7): Active; IC50 (5'-nucleotidase [8]): 0.0073 µM
C#C[C@@]1(O)[C@@H](COC(Cc2ccc(N3CCCCC3=O)cc2)(C(=O)O)C(=O)O)O[C@@H](n2cnc3c(N)nc(Cl)nc32)[C@@H]1O			Ratio IC50 [7]: 1
Nc1nc(Cl)nc2c1ncn2[C@@H]1O[C@H](COC(Cc2ccccc2)(C(=O)O)C(=O)O)[C@@H](O)[C@@H]1F			IC50 (5'-nucleotidase [4]): 0.159 µM
C#C[C@@]1(O)[C@@H](COC(Cc2ccccc2)(C(=O)O)C(=O)O)O[C@@H](n2cnc3c(NC)nc(Cl)nc32)[C@@H]1O	0.0155	0.6	
C#C[C@@]1(O)[C@@H](COC(Cc2ccccc2)(C(=O)O)C(=O)O)O[C@@H](n2cnc3c(NCCO)nc(Cl)nc32)[C@@H]1O	0.0072	0.45	
Nc1nc(Cl)nc2c1ncn2[C@@H]1O[C@H](COC(Cc2ccccc2)(C(=O)O)C(=O)O)[C@](O)(C#CC2CC2)[C@H]1O	0.0015	3.24	
CN(C(=O)c1ccccc1)c1ccc(CC(OC[C@H]2O[C@@H](n3cnc4c(N)nc(Cl)nc43)[C@@H](F)[C@@H]2O)(C(=O)O)C(=O)O)cc1			IC50 (5'-nucleotidase [4]): 0.009 µM
CC#C[C@@]1(O)[C@@H](COC(Cc2ccccc2)(C(=O)O)C(=O)O)O[C@@H](n2cnc3c(N)nc(Cl)nc32)[C@@H]1O	0.0016	0.594	
C#C[C@@]1(O)[C@@H](COC(Cc2ccccc2)(C(=O)O)C(=O)O)O[C@@H](n2cnc3c(N(C)C)nc(Cl)nc32)[C@@H]1O	0.016	1.08	
C#C[C@@]1(O)[C@@H](COC(Cc2ccc(-c3ccccc3)cc2)(C(=O)O)C(=O)O)O[C@@H](n2cnc3c(N)nc(Cl)nc32)[C@@H]1O	0.0156	3.84	Ratio IC50 [7]: 52

Second part, led by results:

IC50 (5'-nucleotidase [1]) [µM]	clearance [2] [L/h/kg]	SMILES	other results
0.0115	0.222	C#C[C@@]1(O)[C@@H](COC(Cc2ccccc2)(C(=O)O)C(=O)O)O[C@@H](n2cnc3c(NCC4CC4)nc(Cl)nc32)[C@@H]1O	
0.16	0.0546	C#C[C@@]1(O)[C@@H](COC(Cc2ccccc2)(C(=O)O)C(=O)O)O[C@@H](n2cnc3c(NC(C)C)cc(Cl)nc32)[C@@H]1O	IC50 (5'-nucleotidase [3]): 0.002 µM
0.00038		C#C[C@@]1(O)[C@@H](COC(Cc2ccc(-c3ccc[nH]c3=O)cc2)(C(=O)O)C(=O)O)O[C@@H](n2cnc3c(N)nc(Cl)nc32)[C@@H]1O	Ratio IC50 [7]: 3.8
0.0028	0.174	C#C[C@@]1(O)[C@@H](COC(Cc2ccc(-c3ccccc3C(=O)O)cc2)(C(=O)O)C(=O)O)O[C@@H](n2cnc3c(N)nc(Cl)nc32)[C@@H]1O	Ratio IC50 [7]: 14
0.208	0.552	C#C[C@@]1(O)[C@@H](COC(Cc2ccccc2)(C(=O)O)C(=O)O)O[C@@H](n2cnc3c(N[C@@H](C)c4ccccc4)nc(Cl)nc32)[C@@H]1O	
0.05	0.084	C#C[C@@]1(O)[C@@H](COC(Cc2ccccc2)(C(=O)O)C(=O)O)O[C@@H](n2cnc3c(NC(C)C)nc(Cl)nc32)[C@@H]1O	
0.0065	0.468	C#C[C@@]1(O)[C@@H](COC(Cc2ccccc2)(C(=O)O)C(=O)O)O[C@@H](n2cnc3c(NCC)nc(Cl)nc32)[C@@H]1O	
